Changes are numbered by the printed parent chain.

The first assay concerns the target T1, AR protein (Homo sapiens, UniProt P10275, T878A).
T1 construct: degradation activity of the compounds disclosed in the present disclosure on AR protein in LNCaP cells; host or cells: LNCaP FGC
T1 sequence (P10275 1-920 T878A): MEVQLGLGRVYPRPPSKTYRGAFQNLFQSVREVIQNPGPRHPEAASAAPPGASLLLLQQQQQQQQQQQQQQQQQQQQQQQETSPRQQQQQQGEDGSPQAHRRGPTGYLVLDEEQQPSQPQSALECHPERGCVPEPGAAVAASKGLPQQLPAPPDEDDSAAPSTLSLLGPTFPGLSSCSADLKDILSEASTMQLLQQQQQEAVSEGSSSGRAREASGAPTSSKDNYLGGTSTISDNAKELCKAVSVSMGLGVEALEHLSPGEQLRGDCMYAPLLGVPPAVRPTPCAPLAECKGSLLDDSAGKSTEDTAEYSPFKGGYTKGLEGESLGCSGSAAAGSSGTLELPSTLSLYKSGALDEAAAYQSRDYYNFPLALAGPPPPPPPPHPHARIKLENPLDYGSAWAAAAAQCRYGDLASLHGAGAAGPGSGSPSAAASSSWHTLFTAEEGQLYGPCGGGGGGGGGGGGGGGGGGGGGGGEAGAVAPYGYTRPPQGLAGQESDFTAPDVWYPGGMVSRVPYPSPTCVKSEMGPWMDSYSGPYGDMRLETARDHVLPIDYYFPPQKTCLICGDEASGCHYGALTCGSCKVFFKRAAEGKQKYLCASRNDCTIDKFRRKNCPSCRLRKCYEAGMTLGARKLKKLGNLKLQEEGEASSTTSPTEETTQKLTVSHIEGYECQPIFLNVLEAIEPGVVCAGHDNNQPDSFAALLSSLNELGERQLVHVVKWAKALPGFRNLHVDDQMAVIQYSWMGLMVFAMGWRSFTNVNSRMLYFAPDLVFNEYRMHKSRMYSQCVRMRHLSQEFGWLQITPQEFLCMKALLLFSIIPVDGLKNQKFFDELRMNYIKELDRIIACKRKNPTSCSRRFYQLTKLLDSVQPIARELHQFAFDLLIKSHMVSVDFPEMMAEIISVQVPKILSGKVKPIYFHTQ
The assay is described as follows: Degradation of AR protein in LNCaP cells (Western blot). It counts as cell-based. The following applies: LNCaP cells, compound 10 nM, 8 hours, Western blot grayscale, GAPDH internal reference; read-out: Degradation rates of the AR protein in LNCaP cells, 10 nM (%). The gist of the method: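 AR assessed by SDS-PAGE/Western blot with infrared imaging; band greyscale normalised to GAPDH gave percent degradation.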
(Immunoblotting shows a protein as a band on a membrane.)
`COc1cc(O[C@H]2C(C)(C)[C@H](NC(=O)c3ccc(N4CCC(F)(CN5CC6(CCc7cc8c(cc7O6)C(=O)N(C6CCC(=O)NC6=O)C8=O)C5)CC4)cc3)C2(C)C)ccc1C#N` (stereo partly drawn) [Compound 269]: the inhibition at 0.01 µM came out at 35%.
Still for that read-out and setting: with `COc1cc(O[C@H]2C(C)(C)[C@H](NC(=O)c3ccc(N4CCC(F)(CN5CCC6(CCc7cc8c(cc7O6)C(=O)N(C6CCC(=O)NC6=O)C8=O)CC5)CC4)cc3)C2(C)C)ccc1C#N` (stereo partly drawn) [Compound 270] the figure was 47%; with `COc1cc(O[C@H]2C(C)(C)[C@H](NC(=O)c3ccc(N4CCC(F)(CN5CCC6(CC5)COc5cc7c(cc5C6)C(=O)N(C5CCC(=O)NC5=O)C7=O)CC4)cc3)C2(C)C)ccc1C#N` (stereo partly drawn) [Compound 271], -3%.

Staying with this assay, now noted: LNCaP cells, compound 100 nM, 8 hours, Western blot grayscale, GAPDH internal reference; read-out: Degradation rates of the AR protein in LNCaP cells, 100 nM (%).
`COc1cc(O[C@H]2C(C)(C)[C@H](NC(=O)c3ccc(N4CCC(F)(CN5CC6(CCc7cc8c(cc7O6)C(=O)N(C6CCC(=O)NC6=O)C8=O)C5)CC4)cc3)C2(C)C)ccc1C#N` (stereo partly drawn) [Compound 269]: the inhibition at 0.1 µM turned out to be 61%.
On the same count and under the same terms, with `COc1cc(O[C@H]2C(C)(C)[C@H](NC(=O)c3ccc(N4CCC(F)(CN5CCC6(CCc7cc8c(cc7O6)C(=O)N(C6CCC(=O)NC6=O)C8=O)CC5)CC4)cc3)C2(C)C)ccc1C#N` (stereo partly drawn) [Compound 270] the figure was 40%; with `COc1cc(O[C@H]2C(C)(C)[C@H](NC(=O)c3ccc(N4CCC(F)(CN5CCC6(CC5)COc5cc7c(cc5C6)C(=O)N(C5CCC(=O)NC5=O)C7=O)CC4)cc3)C2(C)C)ccc1C#N` (stereo partly drawn) [Compound 271], 10%.

The target in the next assay is T2, AR protein (Homo sapiens, UniProt P10275).
T2 construct: degradation activity of the compounds disclosed in the present disclosure on AR protein in VCaP cells; host or cells: VCaP
T2 sequence (P10275 1-920): T1 sequence (P10275 1-920 T878A) with A878T
Put plainly: Degradation of AR protein in VCaP cells (Western blot). It counts as cell-based. The following applies: compound at 10 nM, 8 hours, read-out: Degradation rate of the AR protein in VCaP cells, 10 nM (%). A digest of the protocol: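 VCaP cells treated with compound alongside solvent controls for 8 h, then lysed in RIPA and protein quantified by BCA. AR detected by SDS-PAGE/Western blot with infrared imaging. Degradation rate calculated from band grayscale, with GAPDH as internal reference.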
As for `COc1cc(O[C@H]2C(C)(C)[C@H](NC(=O)c3ccc(N4CCC(F)(CN5CC6(CCc7cc8c(cc7O6)C(=O)N(C6CCC(=O)NC6=O)C8=O)C5)CC4)cc3)C2(C)C)ccc1C#N` (stereo partly drawn) [Compound 269], the inhibition at 0.01 µM is 7%.
Still for that read-out and setting: with `COc1cc(O[C@H]2C(C)(C)[C@H](NC(=O)c3ccc(N4CCC(F)(CN5CCC6(CCc7cc8c(cc7O6)C(=O)N(C6CCC(=O)NC6=O)C8=O)CC5)CC4)cc3)C2(C)C)ccc1C#N` (stereo partly drawn) [Compound 270] the figure was 9%.
On the same count and under the same terms, next, `COc1cc(O[C@H]2C(C)(C)[C@H](NC(=O)c3ccc(N4CCC(F)(CN5CCC6(CC5)COc5cc7c(cc5C6)C(=O)N(C5CCC(=O)NC5=O)C7=O)CC4)cc3)C2(C)C)ccc1C#N` (stereo partly drawn) [Compound 271]: -47%.

The same assay, now with this note: compound at 100 nM, 8 hours, read-out: Degradation rate of the AR protein in VCaP cells, 100 nM (%).
Regarding `COc1cc(O[C@H]2C(C)(C)[C@H](NC(=O)c3ccc(N4CCC(F)(CN5CC6(CCc7cc8c(cc7O6)C(=O)N(C6CCC(=O)NC6=O)C8=O)C5)CC4)cc3)C2(C)C)ccc1C#N` (stereo partly drawn) [Compound 269], the inhibition at 0.1 µM turned out to be 63%.
For the compound `COc1cc(O[C@H]2C(C)(C)[C@H](NC(=O)c3ccc(N4CCC(F)(CN5CCC6(CCc7cc8c(cc7O6)C(=O)N(C6CCC(=O)NC6=O)C8=O)CC5)CC4)cc3)C2(C)C)ccc1C#N` (stereo partly drawn) [Compound 270], the inhibition at 0.1 µM came to 28%.
Still for that read-out and setting: next, `COc1cc(O[C@H]2C(C)(C)[C@H](NC(=O)c3ccc(N4CCC(F)(CN5CCC6(CC5)COc5cc7c(cc5C6)C(=O)N(C5CCC(=O)NC5=O)C7=O)CC4)cc3)C2(C)C)ccc1C#N` (stereo partly drawn) [Compound 271]: -5%.

A further assay has as its system LNCaP FGC cells. Put plainly: Inhibition of proliferation of LNCaP cells (WST-8). It counts as cell-based. The following applies: Homo sapiens, LNCaP, 96 h, LNCaP FGC cells, 96 hours, WST-8 absorbance at 450 nm; read-out: IC50 for inhibiting the proliferation of LNCaP cells. The protocol: The cells were cultured in a cell culture incubator with 5% CO2 at 37° C. overnight. […] On the sixth day, 96 well plates were taken out, and 20 μL of WST-8 (Beytime, C0040) reagent was added to each well.
In general terms: Tetrazolium dyes change colour on reduction, which living cells bring about.
In the case of `COc1cc(O[C@H]2C(C)(C)[C@H](NC(=O)c3ccc(N4CCC(F)(CN5CC6(CCc7cc8c(cc7O6)C(=O)N(C6CCC(=O)NC6=O)C8=O)C5)CC4)cc3)C2(C)C)ccc1C#N` (stereo partly drawn) [Compound 269], the IC50 is 11.8 µM.
Still for that read-out and setting: next, `COc1cc(O[C@H]2C(C)(C)[C@H](NC(=O)c3ccc(N4CCC(F)(CN5CCC6(CCc7cc8c(cc7O6)C(=O)N(C6CCC(=O)NC6=O)C8=O)CC5)CC4)cc3)C2(C)C)ccc1C#N` (stereo partly drawn) [Compound 270]: 72 µM.
Still for that read-out and setting: with `COc1cc(O[C@H]2C(C)(C)[C@H](NC(=O)c3ccc(N4CCC(F)(CN5CCC6(CC5)COc5cc7c(cc5C6)C(=O)N(C5CCC(=O)NC5=O)C7=O)CC4)cc3)C2(C)C)ccc1C#N` (stereo partly drawn) [Compound 271] the figure was 37.9 µM.

The test system of the next assay is VCaP cells. The assay is described as follows: Inhibition of proliferation of VCaP cells (WST-8). It counts as cell-based. The following applies: Homo sapiens; VCaP cells, 168 hours, WST-8 absorbance at 450 nm; read-out: IC50 for inhibiting the proliferation of VCaP cells. A digest of the protocol:
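VCaP FGC cells, 15000 per well in DMEM with 10% FBS, were cultured at 37° C, 5% CO2. On day nine, WST-8 reagent was added to read proliferation.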
Regarding `COc1cc(O[C@H]2C(C)(C)[C@H](NC(=O)c3ccc(N4CCC(F)(CN5CC6(CCc7cc8c(cc7O6)C(=O)N(C6CCC(=O)NC6=O)C8=O)C5)CC4)cc3)C2(C)C)ccc1C#N` (stereo partly drawn) [Compound 269], the IC50 worked out at 0.27 µM.
Still for that read-out and setting: next, `COc1cc(O[C@H]2C(C)(C)[C@H](NC(=O)c3ccc(N4CCC(F)(CN5CCC6(CCc7cc8c(cc7O6)C(=O)N(C6CCC(=O)NC6=O)C8=O)CC5)CC4)cc3)C2(C)C)ccc1C#N` (stereo partly drawn) [Compound 270]: 0.11 µM; `COc1cc(O[C@H]2C(C)(C)[C@H](NC(=O)c3ccc(N4CCC(F)(CN5CCC6(CC5)COc5cc7c(cc5C6)C(=O)N(C5CCC(=O)NC5=O)C7=O)CC4)cc3)C2(C)C)ccc1C#N` (stereo partly drawn) [Compound 271]: 0.1 µM.

The values above are taken from patent publication US20260234157A1, “COMPOUND AND METHOD FOR TARGETED DEGRADATION OF ANDROGEN RECEPTOR” (Gan & Lee Pharmaceuticals Co., Ltd., priority 2023, published 2026).
